System: dogs
Experiment: Previous experiment in dogs treated with the same formulations
Assay type: in vivo, dog
Method: 4 days prior to dosing, formulation were prepared containing: (1) 8 mg insulin, 150 mg EDTA, 125 mg SBTI in 1 ml fish oil in a soft-gel capsule (SwissCup), (2). 8 mg insulin, 150 mg EDTA, 150000 KIU Aprotinin in 1 ml fish oil in a soft-gel capsule (SwissCup), (3) 8 mg insulin, 150 mg EDTA, 150000 KIU Aprotinin, 125 mg SBTI in 1 ml fish oil in a soft-gel capsule (SwissCup). The formulations were stored in the refrigerator (4° C.) until dosing.
Thus, the results regarding the reduction in blood glucose levels with insulin and a combination of protease inhibitors was unexpected.
Thus, the results regarding the reduction in blood C-peptide levels with insulin and a combination of protease inhibitors was unexpected.
The above described formulations are also active with 0.5 ml fish oil both in dogs and humans.

Substance: Aprotinin
- reaction of dogs to Aprotinin: do not react
